In experiment [1] the test system is Mycobacterium tuberculosis. Description: Potentiation of ethionamide induced antibacterial activity against Mycobacterium tuberculosis W4-E1 harboring EthA Gly343Ala mutant expressing GFP incubated for 5 days by fluorescence based analysis. The experiment is classed as functional, organism-based.
For experiment [2], the system named is Mycobacterium tuberculosis. As to the kind of experiment: Antimycobacterial activity against isoniazid and rifampicin resistant Mycobacterium tuberculosis by broth dilution method. The format is functional. On the technique in general: In broth dilution the organism is exposed to a series of concentrations in liquid medium.
Experiment [3] concerns Mycobacterium tuberculosis. As to the kind of experiment: Antimycobacterial activity against rifampicin resistant Mycobacterium tuberculosis by broth dilution method. The format is functional.
In experiment [4] the test system is Mycobacterium tuberculosis. Description: Antimycobacterial activity against isoniazid, rifampicin, amikacin and moxifloxacin resistant Mycobacterium tuberculosis by broth dilution method. The format is functional.
Experiment [5] has as its system Mycobacterium tuberculosis. Description: Antimycobacterial activity against extensively drug resistant Mycobacterium tuberculosis H37Rv. The experiment is classed as functional.
Experiment [6] concerns Mycobacterium tuberculosis. Description: Antimycobacterial activity against multidrug resistant Mycobacterium tuberculosis H37Rv. The format is functional.

In brackets after ≈: the same amount, converted by molar mass.

Among the data in ChEMBL document CHEMBL5244273, “Tuberculosis: An Overview of the Immunogenic Response, Disease Progression, and Medicinal Chemistry Efforts in the Last Decade toward the Development of Potential Drugs for Extensively Drug-Resistant Tuberculosis Strains” (J Med Chem, 2021) are EC50 and MIC values, retold here.

A word on the EC50: it is the midpoint of the concentration-response curve. In general, MIC refers to the lowest concentration that inhibits growth of the organism. Low readings indicate a more susceptible organism, high ones a less susceptible organism.

Regarding `O=C(CCC(F)(F)F)N1CCC(F)(c2cccnc2)CC1`, the EC50 in experiment [1] was under 1.3 µM. For `Cc1ccccc1OCc1cn(C[C@@]2(C)Cn3cc([N+](=O)[O-])nc3O2)nn1`, the MIC in experiment [2], in experiment [3] and in experiment [4] was 1 µg/mL (≈ 2.7 µM) in each case. Regarding `O=C(CCC(F)(F)F)N1CCC(F)(c2ccnc(C(F)(F)F)c2)CC1`, the EC50 in experiment [1] was under 1.3 µM. Still for that read-out and setting: for `O=C(CCC(F)(F)F)N1CCC2(CC1)CC(F)=NO2` the value was under 0.14 µM; for `O=C(CCC(F)(F)F)N1CCC(c2cccc(C(F)(F)F)n2)CC1`, under 1.3 µM; for `O=C(CCC(F)(F)F)N1CCC(c2cncc(C(F)(F)F)n2)CC1`, under 1.3 µM.

Take `O=C(CCC(F)(F)F)N1CCC(c2cncc(F)c2)CC1`: the EC50 in experiment [1] was under 1.3 µM. As for `C[C@]1(Cn2cc(COc3ccccc3F)nn2)Cn2cc([N+](=O)[O-])nc2O1`, the MIC was 0.5 µg/mL (≈ 1.34 µM) in experiment [2], 1 µg/mL (≈ 2.67 µM) in experiment [3] and 1 µg/mL (≈ 2.67 µM) in experiment [4].

Consider `C[C@]1(Cn2cc(COc3ccc(Br)cc3)nn2)Cn2cc([N+](=O)[O-])nc2O1`, for which the MIC in experiment [2] came to 0.12 µg/mL (≈ 0.276 µM); in experiment [3], 0.12 µg/mL (≈ 0.276 µM); in experiment [4], 0.25 µg/mL (≈ 0.574 µM).

Regarding `O=C(CCC(F)(F)F)N1CCC(c2cncc(C(F)(F)F)c2)CC1`, in experiment [1], the EC50 is under 1.3 µM.

For the molecule `O=C(CCC(F)(F)F)N1CCC(F)(c2ccc(F)nc2)CC1`, the EC50 in experiment [1] was under 1.3 µM. In the case of `C[C@]1(Cn2cc(COc3cccc(Cl)c3)nn2)Cn2cc([N+](=O)[O-])nc2O1`, the MIC came to 2 µg/mL (≈ 5.12 µM) in experiment [2], 2 µg/mL (≈ 5.12 µM) in experiment [3] and 4 µg/mL (≈ 10.2 µM) in experiment [4]. On to `O=C(CCC(F)(F)F)N1CCC(c2ccncc2F)CC1`, for which the EC50 in experiment [1] was under 1.3 µM. The same measure, in the same setting: for `O=C(CCC(F)(F)F)N1CCC(c2ccc(F)nc2F)CC1` the value was under 1.3 µM. Consider `C[C@]1(Cn2cc(-c3ccc(Oc4ccccc4)cc3)nn2)Cn2cc([N+](=O)[O-])nc2O1`, for which the MIC in experiment [2], in experiment [3] and in experiment [4] was 1 µg/mL (≈ 2.39 µM) throughout. `CC(C)c1ccc(OCc2cn(C[C@@]3(C)Cn4cc([N+](=O)[O-])nc4O3)nn2)cc1`: the MIC in experiment [2] is 1 µg/mL (≈ 2.51 µM); in experiment [3], 2 µg/mL (≈ 5.02 µM); in experiment [4], 4 µg/mL (≈ 10 µM).

With `O=C(CCC(F)(F)F)N1CCC(c2ccc(F)cn2)CC1`, the EC50 in experiment [1] was under 1.3 µM. Take `COc1ccc(C2CCN(C(=O)CCC(F)(F)F)CC2)cn1`: the EC50 in experiment [1] is under 1.3 µM. Take `C[C@]1(Cn2cc(COc3ccc(OC(F)(F)F)cc3)nn2)Cn2cc([N+](=O)[O-])nc2O1`: the MIC in experiment [2], in experiment [3] and in experiment [4] was 2 µg/mL (≈ 4.54 µM) throughout. Consider `C[C@]1(Cn2cc(COc3ccc(C(F)(F)F)cc3)nn2)Cn2cc([N+](=O)[O-])nc2O1`, for which the MIC in experiment [2], in experiment [3] and in experiment [4] was 4 µg/mL (≈ 9.43 µM) in each case. Regarding `O=C(CCC(F)(F)F)N1CCC(c2cc(C(F)(F)F)ccn2)CC1`, the EC50 in experiment [1] is under 1.3 µM.

In the case of `O=C(CCC(F)(F)F)N1CCC(c2ccnc(C(F)(F)F)c2)CC1`, the EC50 in experiment [1] was under 1.3 µM. Take `CCCCCc1cn(C[C@@]2(C)Cn3cc([N+](=O)[O-])nc3O2)nn1`: the results for the MIC in experiment [2], in experiment [3] and in experiment [4] were 2 µg/mL (≈ 6.24 µM), 8 µg/mL (≈ 25 µM) and 8 µg/mL (≈ 25 µM), respectively. As to `O=C(CCC(F)(F)F)N1CCC(c2cccc(Cl)n2)CC1`, the EC50 in experiment [1] was under 1.3 µM.

Turning to `O=C(CCC(F)(F)F)N1CC(c2ccc(F)cc2F)C1`, the EC50 in experiment [1] was under 0.075 µM. As for `CC1=NOC2(CCN(C(=O)CCC(F)(F)F)CC2)C1`, the EC50 in experiment [1] is under 0.14 µM. For `O=C(CCC(F)(F)F)N1CCC(c2ccnc(F)c2)CC1`, the EC50 in experiment [1] is under 1.3 µM.

In the case of `COc1cccc(C(=O)Nc2nc3cc(C4=NN(C(C)=O)C(c5cccs5)C4)ccc3o2)c1` (centres undefined), the MIC in experiment [5] came to 12.5 µg/mL (≈ 27.1 µM); in experiment [6], 3.12 µg/mL (≈ 6.78 µM). With `O=C(CCC(F)(F)F)N1CC(c2cc(F)c(F)c(F)c2)C1`, the EC50 in experiment [1] is under 0.075 µM. Regarding `O=C(CCC(F)(F)F)N1CCC(c2cncc(Cl)n2)CC1`, in experiment [1], the EC50 is under 1.3 µM. The same measure, in the same setting: for `O=C(CCC(F)(F)F)N1CCC(F)(c2ccccn2)CC1` the value was under 1.3 µM; for `Cc1cc(C2CCN(C(=O)CCC(F)(F)F)CC2)ccn1`, under 1.3 µM.

As to `O=C(CCC(F)(F)F)N1CCC(c2ccc(F)nc2)CC1`, in experiment [1], the EC50 is under 1.3 µM. Same read-out and setting: for `O=C(CCC(F)(F)F)N1CCC(c2cccc(F)n2)CC1` the value was under 1.3 µM; for `CC(C)COC1=NOC2(CCN(C(=O)CCC(F)(F)F)CC2)C1`, under 0.14 µM. With `C[C@]1(Cn2cc(COc3ccccn3)nn2)Cn2cc([N+](=O)[O-])nc2O1`, the MIC in experiment [2] was 0.25 µg/mL (≈ 0.7 µM); in experiment [3], 0.5 µg/mL (≈ 1.4 µM); in experiment [4], 0.5 µg/mL (≈ 1.4 µM). Turning to `N#CC1=NOC2(CCN(C(=O)CCC(F)(F)F)CC2)C1`, in experiment [1], the EC50 is under 0.14 µM. Same read-out and setting: for `O=C(CCC(F)(F)F)N1CCC(c2cncc(Cl)c2)CC1` the value was under 1.3 µM.
